According to ChEMBL document CHEMBL5365500, “Development and Antibacterial Properties of 4-[4-(Anilinomethyl)-3-phenylpyrazol-1-yl]benzoic Acid Derivatives as Fatty Acid Biosynthesis Inhibitors” (J Med Chem, 2023):
Values after ≈ are worked out from the molar mass of the structure shown.

Tests used:
Format in all cases: functional
Conditions in all cases: time 20-24 hrs
Enterococcus faecalis [1] = assay: Antimicrobial activity against antibiotic-susceptible Enterococcus faecalis ATCC 29212 assessed as inhibition of visible growth measured after 20 to 24 hrs incubation by CLSI method
Staphylococcus aureus [2] = assay: Antimicrobial activity against antibiotic-resistant Staphylococcus aureus ATCC 700699 assessed as inhibition of visible growth measured after 20 to 24 hrs incubation by CLSI method
Staphylococcus aureus [3] = assay: Antimicrobial activity against antibiotic-resistant Staphylococcus aureus ATCC 33592 assessed as inhibition of visible growth measured after 20 to 24 hrs incubation by CLSI method
Staphylococcus aureus [4] = assay: Antimicrobial activity against Staphylococcus aureus ATCC 25923 assessed as inhibition of visible growth measured after 20 to 24 hrs incubation by CLSI method
Staphylococcus aureus [5] = assay: Antimicrobial activity against antibiotic-resistant Staphylococcus aureus ATCC 33591 assessed as inhibition of visible growth measured after 20 to 24 hrs incubation by CLSI method
Enterococcus faecalis [6] = assay: Antimicrobial activity against antibiotic-resistant Enterococcus faecalis ATCC 51299 assessed as inhibition of visible growth measured after 20 to 24 hrs incubation by CLSI method
Enterococcus faecium = assay: Antimicrobial activity against antibiotic-resistant Enterococcus faecium ATCC 700221 assessed as inhibition of visible growth measured after 20 to 24 hrs incubation by CLSI method
Staphylococcus aureus [7] = assay: Antimicrobial activity against antibiotic-resistant Staphylococcus aureus ATCC BAA-2312 assessed as inhibition of visible growth measured after 20 to 24 hrs incubation by CLSI method
Bacillus subtilis = assay: Antimicrobial activity against antibiotic-resistant Bacillus subtilis ATCC 6623 assessed as inhibition of visible growth measured after 20 to 24 hrs incubation by CLSI method
[8] = test system: Staphylococcus epidermidis; assay: Antimicrobial activity against antibiotic-resistant Staphylococcus epidermidis ATCC 700296 assessed as inhibition of visible growth measured after 20 to 24 hrs incubation by CLSI method

Row | Compound | MIC (Enterococcus faecalis [1]) [µg/mL] | MIC (Staphylococcus aureus [2]) [µg/mL] | MIC (Staphylococcus aureus [3]) [µg/mL] | MIC (Staphylococcus aureus [4]) [µg/mL] | MIC (Staphylococcus aureus [5]) [µg/mL] | MIC (Enterococcus faecalis [6]) [µg/mL] | MIC (Enterococcus faecium) [µg/mL] | MIC (Staphylococcus aureus [7]) [µg/mL] | MIC (Bacillus subtilis) [µg/mL] | MIC [8] [µg/mL]
1 | O=C(O)c1ccc(-n2cc(CNc3ccc(F)c(F)c3)c(-c3cccc(F)c3)n2)cc1 | > 32 | 16 (≈ 37.8 µM) | 16 (≈ 37.8 µM) | 16 (≈ 37.8 µM) | 16 (≈ 37.8 µM) | 32 (≈ 75.6 µM) | 32 (≈ 75.6 µM) | 16 (≈ 37.8 µM) | 8 (≈ 18.9 µM) | 32 (≈ 75.6 µM)
2 | O=C(O)c1ccc(-n2cc(CNc3ccc(F)c(C(F)(F)F)c3)c(-c3ccc(F)cc3)n2)cc1 | 16 (≈ 33.8 µM) | 8 (≈ 16.9 µM) | 4 (≈ 8.45 µM) | 4 (≈ 8.45 µM) | 2 (≈ 4.22 µM) | 16 (≈ 33.8 µM) | 16 (≈ 33.8 µM) | 4 (≈ 8.45 µM) | 2 (≈ 4.22 µM) | 8 (≈ 16.9 µM)
3 | CC(C)c1ccc(NCc2cn(-c3ccc(C(=O)O)cc3)nc2-c2ccc(F)cc2)cc1 | 16 (≈ 37.3 µM) | 4 (≈ 9.31 µM) | 8 (≈ 18.6 µM) | 8 (≈ 18.6 µM) | 4 (≈ 9.31 µM) | 8 (≈ 18.6 µM) | 4 (≈ 9.31 µM) | 4 (≈ 9.31 µM) | 2 (≈ 4.66 µM) | 8 (≈ 18.6 µM)
4 | O=C(O)c1ccc(-n2cc(CNc3ccc(F)c(F)c3F)c(-c3ccc(F)c(F)c3)n2)cc1 | > 32 | > 32 | > 32 | > 32 | 2 (≈ 4.35 µM) | > 32 | > 32 | 8 (≈ 17.4 µM) | 2 (≈ 4.35 µM) | > 32
5 | O=C(O)c1ccc(-n2cc(CNc3ccc(F)c(Cl)c3)c(-c3cccc(F)c3)n2)cc1 | 32 (≈ 72.8 µM) | 16 (≈ 36.4 µM) | 16 (≈ 36.4 µM) | 16 (≈ 36.4 µM) | 8 (≈ 18.2 µM) | 32 (≈ 72.8 µM) | 32 (≈ 72.8 µM) | 8 (≈ 18.2 µM) | 4 (≈ 9.09 µM) | 16 (≈ 36.4 µM)
6 | Cc1ccc(NCc2cn(-c3ccc(C(=O)O)cc3)nc2-c2ccc(F)cc2)cc1Cl | > 32 | 4 (≈ 9.18 µM) | 16 (≈ 36.7 µM) | 32 (≈ 73.4 µM) | 16 (≈ 36.7 µM) | > 32 | 16 (≈ 36.7 µM) | 16 (≈ 36.7 µM) | 8 (≈ 18.4 µM) | 32 (≈ 73.4 µM)
7 | O=C(O)c1ccc(-n2cc(CNc3ccc(Oc4ccccc4)cc3)c(-c3cccc(F)c3)n2)cc1 | 8 (≈ 16.7 µM) | 4 (≈ 8.34 µM) | 4 (≈ 8.34 µM) | 4 (≈ 8.34 µM) | 2 (≈ 4.17 µM) | 8 (≈ 16.7 µM) | 4 (≈ 8.34 µM) | 2 (≈ 4.17 µM) | 2 (≈ 4.17 µM) | 8 (≈ 16.7 µM)
8 | O=C(O)c1ccc(-n2cc(CNc3cc(F)c(F)c(F)c3)c(-c3ccc(F)c(F)c3)n2)cc1 | > 32 | 8 (≈ 17.4 µM) | 8 (≈ 17.4 µM) | 8 (≈ 17.4 µM) | 4 (≈ 8.71 µM) | > 32 | 8 (≈ 17.4 µM) | 8 (≈ 17.4 µM) | 4 (≈ 8.71 µM) | 16 (≈ 34.8 µM)
9 | O=C(O)c1ccc(-n2cc(CNc3cc(C(F)(F)F)cc(C(F)(F)F)c3)c(-c3ccc(F)c(F)c3)n2)cc1 | 2 (≈ 3.69 µM) | 1 (≈ 1.85 µM) | 1 (≈ 1.85 µM) | 1 (≈ 1.85 µM) | 0.5 (≈ 0.924 µM) | 2 (≈ 3.69 µM) | 2 (≈ 3.69 µM) | 0.5 (≈ 0.924 µM) | 0.5 (≈ 0.924 µM) | 4 (≈ 7.39 µM)
10 | O=C(O)c1ccc(-n2cc(CNc3ccc(C(F)(F)F)cc3)c(-c3ccc(F)c(F)c3)n2)cc1 | > 32 | 4 (≈ 8.45 µM) | 2 (≈ 4.22 µM) | 2 (≈ 4.22 µM) | 1 (≈ 2.11 µM) | > 32 | 8 (≈ 16.9 µM) | 2 (≈ 4.22 µM) | 1 (≈ 2.11 µM) | 4 (≈ 8.45 µM)
11 | O=C(O)c1ccc(-n2cc(CNc3cc(Cl)c(F)c(Cl)c3)c(-c3ccc(F)cc3)n2)cc1 | 8 (≈ 16.9 µM) | 2 (≈ 4.22 µM) | 1 (≈ 2.11 µM) | 1 (≈ 2.11 µM) | 0.5 (≈ 1.05 µM) | 4 (≈ 8.43 µM) | 4 (≈ 8.43 µM) | 1 (≈ 2.11 µM) | 1 (≈ 2.11 µM) | 2 (≈ 4.22 µM)
12 | O=C(O)c1ccc(-n2cc(CNc3cc(Cl)c(F)c(Cl)c3)c(-c3ccc(F)c(F)c3)n2)cc1 | 4 (≈ 8.13 µM) | 1 (≈ 2.03 µM) | 1 (≈ 2.03 µM) | 1 (≈ 2.03 µM) | 0.25 (≈ 0.508 µM) | 4 (≈ 8.13 µM) | 1 (≈ 2.03 µM) | 0.5 (≈ 1.02 µM) | 0.5 (≈ 1.02 µM) | 2 (≈ 4.06 µM)
13 | O=C(O)c1ccc(-n2cc(CNc3cc(Cl)cc(Cl)c3)c(-c3ccc(F)cc3)n2)cc1 | 4 (≈ 8.77 µM) | 2 (≈ 4.38 µM) | 1 (≈ 2.19 µM) | 1 (≈ 2.19 µM) | 1 (≈ 2.19 µM) | 4 (≈ 8.77 µM) | 4 (≈ 8.77 µM) | 1 (≈ 2.19 µM) | 0.5 (≈ 1.1 µM) | 2 (≈ 4.38 µM)
14 | O=C(O)c1ccc(-n2cc(CNc3cc(Cl)ccc3Cl)c(-c3cccc(F)c3)n2)cc1 | 32 (≈ 70.1 µM) | 32 (≈ 70.1 µM) | 32 (≈ 70.1 µM) | 32 (≈ 70.1 µM) | 32 (≈ 70.1 µM) | 32 (≈ 70.1 µM) | 32 (≈ 70.1 µM) | 16 (≈ 35.1 µM) | 8 (≈ 17.5 µM) | 32 (≈ 70.1 µM)
15 | O=C(O)c1ccc(-n2cc(CNc3cccc(C(F)(F)F)c3)c(-c3ccc(F)c(F)c3)n2)cc1 | 8 (≈ 16.9 µM) | 8 (≈ 16.9 µM) | 4 (≈ 8.45 µM) | 4 (≈ 8.45 µM) | 1 (≈ 2.11 µM) | 8 (≈ 16.9 µM) | 4 (≈ 8.45 µM) | 2 (≈ 4.22 µM) | 1 (≈ 2.11 µM) | 8 (≈ 16.9 µM)
16 | O=C(O)c1ccc(-n2cc(CNc3ccc(Br)cc3)c(-c3ccc(F)c(F)c3)n2)cc1 | > 32 | > 32 | > 32 | > 32 | > 32 | > 32 | > 32 | > 32 | > 32 | > 32
17 | COc1ccc(NCc2cn(-c3ccc(C(=O)O)cc3)nc2-c2ccc(F)cc2)cc1C(F)(F)F | 32 (≈ 65.9 µM) | 8 (≈ 16.5 µM) | 16 (≈ 33 µM) | 16 (≈ 33 µM) | 8 (≈ 16.5 µM) | 32 (≈ 65.9 µM) | 32 (≈ 65.9 µM) | 16 (≈ 33 µM) | 8 (≈ 16.5 µM) | 16 (≈ 33 µM)
18 | O=C(O)c1ccc(-n2cc(CNc3ccc(F)c(Cl)c3)c(-c3ccc(F)c(F)c3)n2)cc1 | 16 (≈ 34.9 µM) | 8 (≈ 17.5 µM) | 8 (≈ 17.5 µM) | 8 (≈ 17.5 µM) | 2 (≈ 4.37 µM) | 32 (≈ 69.9 µM) | 8 (≈ 17.5 µM) | 4 (≈ 8.74 µM) | 2 (≈ 4.37 µM) | 8 (≈ 17.5 µM)
19 | O=C(O)c1ccc(-n2cc(CNc3cccc(Br)c3)c(-c3cccc(F)c3)n2)cc1 | 16 (≈ 34.3 µM) | 8 (≈ 17.2 µM) | 8 (≈ 17.2 µM) | 4 (≈ 8.58 µM) | 2 (≈ 4.29 µM) | 16 (≈ 34.3 µM) | 16 (≈ 34.3 µM) | 4 (≈ 8.58 µM) | 2 (≈ 4.29 µM) | 16 (≈ 34.3 µM)
20 | O=C(O)c1ccc(-n2cc(CNc3cc(F)cc(C(F)(F)F)c3)c(-c3cccc(F)c3)n2)cc1 | 8 (≈ 16.9 µM) | 2 (≈ 4.22 µM) | 1 (≈ 2.11 µM) | 2 (≈ 4.22 µM) | 1 (≈ 2.11 µM) | 8 (≈ 16.9 µM) | 4 (≈ 8.45 µM) | 2 (≈ 4.22 µM) | 1 (≈ 2.11 µM) | 4 (≈ 8.45 µM)
21 | O=C(O)c1ccc(-n2cc(CNc3ccc(Oc4ccccc4)cc3)c(-c3ccc(F)c(F)c3)n2)cc1 | 4 (≈ 8.04 µM) | 2 (≈ 4.02 µM) | 2 (≈ 4.02 µM) | 1 (≈ 2.01 µM) | 1 (≈ 2.01 µM) | 4 (≈ 8.04 µM) | 2 (≈ 4.02 µM) | 1 (≈ 2.01 µM) | 1 (≈ 2.01 µM) | 2 (≈ 4.02 µM)
22 | O=C(O)c1ccc(-n2cc(CNc3cc(Br)cc(C(F)(F)F)c3)c(-c3ccc(F)cc3)n2)cc1 | 4 (≈ 7.49 µM) | 1 (≈ 1.87 µM) | 1 (≈ 1.87 µM) | 2 (≈ 3.74 µM) | 0.5 (≈ 0.936 µM) | 2 (≈ 3.74 µM) | 2 (≈ 3.74 µM) | 1 (≈ 1.87 µM) | 1 (≈ 1.87 µM) | 4 (≈ 7.49 µM)
23 | O=C(O)c1ccc(-n2cc(CNc3ccc(Br)c(C(F)(F)F)c3)c(-c3ccc(F)c(F)c3)n2)cc1 | 2 (≈ 3.62 µM) | 1 (≈ 1.81 µM) | 0.5 (≈ 0.905 µM) | 0.5 (≈ 0.905 µM) | 0.5 (≈ 0.905 µM) | 4 (≈ 7.24 µM) | 2 (≈ 3.62 µM) | 0.5 (≈ 0.905 µM) | 1 (≈ 1.81 µM) | 4 (≈ 7.24 µM)
24 | O=C(O)c1ccc(-n2cc(CNc3cc(F)c(F)c(F)c3)c(-c3ccc(F)cc3)n2)cc1 | > 32 | > 32 | > 32 | 32 (≈ 72.5 µM) | > 32 | > 32 | > 32 | > 32 | 4 (≈ 9.06 µM) | > 32
25 | O=C(O)c1ccc(-n2cc(CNc3ccc(Cl)cc3)c(-c3ccc(F)c(F)c3)n2)cc1 | > 32 | > 32 | > 32 | > 32 | > 32 | > 32 | > 32 | > 32 | 4 (≈ 9.09 µM) | > 32
26 | O=C(O)c1ccc(-n2cc(CNc3cc(F)c(F)c(F)c3)c(-c3cccc(F)c3)n2)cc1 | 32 (≈ 72.5 µM) | 8 (≈ 18.1 µM) | 4 (≈ 9.06 µM) | 4 (≈ 9.06 µM) | 1 (≈ 2.27 µM) | 32 (≈ 72.5 µM) | 16 (≈ 36.2 µM) | 4 (≈ 9.06 µM) | 4 (≈ 9.06 µM) | 8 (≈ 18.1 µM)
27 | O=C(O)c1ccc(-n2cc(CNc3ccc(Br)c(Cl)c3)c(-c3ccc(F)c(F)c3)n2)cc1 | 4 (≈ 7.71 µM) | 2 (≈ 3.86 µM) | 2 (≈ 3.86 µM) | 1 (≈ 1.93 µM) | 0.5 (≈ 0.964 µM) | 4 (≈ 7.71 µM) | 4 (≈ 7.71 µM) | 1 (≈ 1.93 µM) | 2 (≈ 3.86 µM) | 2 (≈ 3.86 µM)
